This experiment has as its target T1, P2X purinoceptor 7 (Homo sapiens, UniProt Q99572).
T1 sequence (Q99572 whole entry): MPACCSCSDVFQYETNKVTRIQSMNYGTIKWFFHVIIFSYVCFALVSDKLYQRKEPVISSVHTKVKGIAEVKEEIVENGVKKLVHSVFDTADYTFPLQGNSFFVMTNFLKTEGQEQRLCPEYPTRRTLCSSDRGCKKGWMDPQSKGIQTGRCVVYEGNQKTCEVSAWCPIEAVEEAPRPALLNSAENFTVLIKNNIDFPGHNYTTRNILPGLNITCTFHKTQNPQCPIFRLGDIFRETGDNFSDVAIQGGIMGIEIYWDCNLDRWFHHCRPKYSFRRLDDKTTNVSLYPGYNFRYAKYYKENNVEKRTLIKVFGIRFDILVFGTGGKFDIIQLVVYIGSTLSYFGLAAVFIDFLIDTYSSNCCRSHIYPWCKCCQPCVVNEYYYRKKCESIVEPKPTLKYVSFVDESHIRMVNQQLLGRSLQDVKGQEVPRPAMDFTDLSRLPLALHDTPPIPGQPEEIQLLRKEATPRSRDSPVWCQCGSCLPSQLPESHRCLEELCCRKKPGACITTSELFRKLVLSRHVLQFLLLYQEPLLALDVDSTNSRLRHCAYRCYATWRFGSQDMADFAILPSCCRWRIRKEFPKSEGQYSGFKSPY
Description: Pore Permeation Assay. On the procedure: Agonist-induced pore formation was determined by measuring cellular uptake of YO PRO fluorescence dye in HEK293 transfected with human P2X7 receptor. A HEK293 cell over expressing human P2X7 was harvested using HQTase reagent to detach the cells from T75 cm flask. The harvested cells are centrifuged @1200 rpm for 5 min at room temperature. The viability of cells was determined by Trypan blue dye and the cells are plated @10,000 cell/well in 50 ul volume in a 384W BD Poly lysine coated plate and incubated overnight at 37 C. […] The plate was centrifuged at 1000 rpm for 5 seconds and incubated at room temperature for 30 minutes. The uptake of YO PRO dye into the cells was measured using Envision Fluorescence plate reader instrument (Perkin Elmer).

SMILES strings stand for the structures.

On to `CCN(C)C(=O)Cn1cc(C(=O)NCC2CCC(F)(F)CC2)c2c(Cl)cccc21` [US10323000, Compound 163], for which the IC50 is below 10 nM.

The term IC50 denotes the concentration at which inhibition is half-maximal.

The record behind these values is BindingDB's records for patent US10323000 (Merck Patent, 2019).
